According to US20260374756A1, “HETEROCYCLIC COMPOUNDS AS INHIBITORS OF MONOACYLGLYCEROL LIPASE (MAGL)” (Hoffmann-La Roche Inc., priority 2022, published 2026):

The molecules below were run against T1, hMAGL (Homo sapiens, UniProt Q99685) (assay: 2-AG assay: MAGL inhibition, hydrolysis of 2-arachidonoylglycerol to arachidonic acid followed by mass spectrometry).
T1 sequence (Q99685 1-303): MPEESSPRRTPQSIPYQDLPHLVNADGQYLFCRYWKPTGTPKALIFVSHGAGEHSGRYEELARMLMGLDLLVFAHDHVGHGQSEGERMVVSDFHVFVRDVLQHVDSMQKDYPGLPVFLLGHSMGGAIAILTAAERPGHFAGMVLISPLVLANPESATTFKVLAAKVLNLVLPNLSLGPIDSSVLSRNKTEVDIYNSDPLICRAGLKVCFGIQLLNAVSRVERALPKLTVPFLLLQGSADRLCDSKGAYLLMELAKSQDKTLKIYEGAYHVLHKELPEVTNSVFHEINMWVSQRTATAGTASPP
Type: biochemical
Outline: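 MAGL preincubated with compound 15 min at RT in 50 mM Tris, 1 mM EDTA, 0.01% Tween-20, 2.5% DMSO; reaction started with 8 μM 2-AG (final), […], 30 min at RT. Quenched with acetonitrile containing d8-arachidonic acid; arachidonic acid quantified by RapidFire SPE-triple quad MS as arachidonic acid/d8 ratio.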

In order of rising IC50:
1. O=C(N1CC2(CC(Cc3cc(C(F)(F)F)n[nH]3)C2)C1)N1CC2(CC(c3cc(C4CC4)n[nH]3)C2)C1 [Example 297, [6-(3-cyclopropyl-1H-pyrazol-5-yl)-2-azaspiro[3.3]heptan-2-yl]-[6-[[3-(trifluoromethyl)-1H-pyrazol-5-yl]methyl]-2-azaspiro[3.3]heptan-2-yl]methanone]  0.12 nM
2. O=C(N1CC2(CC(Cc3cc(C(F)(F)F)n[nH]3)C2)C1)N1CC2(CC(n3cnc(C4CC4)n3)C2)C1 [Example 300, [6-(3-cyclopropyl-1,2,4-triazol-1-yl)-2-azaspiro[3.3]heptan-2-yl]-[6-[[3-(trifluoromethyl)-1H-pyrazol-5-yl]methyl]-2-azaspiro[3.3]heptan-2-yl]methanone]  0.12 nM
3. O=C(N1CC2(CC(Cc3cc(C(F)F)n[nH]3)C2)C1)N1CC2(CC(n3cnc(C4CC4)n3)C2)C1 [Example 296, [6-(3-cyclopropyl-1,2,4-triazol-1-yl)-2-azaspiro[3.3]heptan-2-yl]-[6-[[3-(difluoromethyl)-1H-pyrazol-5-yl]methyl]-2-azaspiro[3.3]heptan-2-yl]methanone]  0.17 nM
4. O=C(N1CC2(CC(Cc3cc(C(F)(F)F)n[nH]3)C2)C1)N1CC2(CC(n3cnc(C(F)(F)F)n3)C2)C1 [Example 298, [6-[[3-(trifluoromethyl)-1H-pyrazol-5-yl]methyl]-2-azaspiro[3.3]heptan-2-yl]-[6-[3-(trifluoromethyl)-1,2,4-triazol-1-yl]-2-azaspiro[3.3]heptan-2-yl]methanone]  0.23 nM
5. O=C(N1CC2(CC(Cc3cc(C(F)F)n[nH]3)C2)C1)N1CC2(CC(c3cc(C4CC4)n[nH]3)C2)C1 [Example 294, [6-(3-cyclopropyl-1H-pyrazol-5-yl)-2-azaspiro[3.3]heptan-2-yl]-[6-[[3-(difluoromethyl)-1H-pyrazol-5-yl]methyl]-2-azaspiro[3.3]heptan-2-yl]methanone]  0.33 nM
6. O=C(N1CC2(CC(Cc3cnn(CC(F)(F)F)c3)C2)C1)N1CC2(CC(c3cc(C4CC4)n[nH]3)C2)C1 [Example 290, [6-(3-cyclopropyl-1H-pyrazol-5-yl)-2-azaspiro[3.3]heptan-2-yl]-[6-[[1-(2,2,2-trifluoroethyl)pyrazol-4-yl]methyl]-2-azaspiro[3.3]heptan-2-yl]methanone]  0.86 nM
7. O=C(N1CC2(CC(Cc3nc(C4CC4)n[nH]3)C2)C1)N1CC2(CC(c3cc(C4CC4)n[nH]3)C2)C1 [Example 301, [6-(3-cyclopropyl-1H-pyrazol-5-yl)-2-azaspiro[3.3]heptan-2-yl]-[6-[(3-cyclopropyl-1H-1,2,4-triazol-5-yl)methyl]-2-azaspiro[3.3]heptan-2-yl]methanone]  1.1 nM
8. O=C(N1CC2(CC(Cc3cc(C(F)F)n[nH]3)C2)C1)N1CC2(CC(n3cnc(C(F)(F)F)n3)C2)C1 [Example 295, [6-[[3-(difluoromethyl)-1H-pyrazol-5-yl]methyl]-2-azaspiro[3.3]heptan-2-yl]-[6-[3-(trifluoromethyl)-1,2,4-triazol-1-yl]-2-azaspiro[3.3]heptan-2-yl]methanone]  1.11 nM
9. O=C(N1CC2(CC(Cc3n[nH]c(C4CC4)n3)C2)C1)N1CC2(CC(n3cnc(C4CC4)n3)C2)C1 [Example 304, [6-(3-cyclopropyl-1,2,4-triazol-1-yl)-2-azaspiro[3.3]heptan-2-yl]-[6-[(5-cyclopropyl-1H-1,2,4-triazol-3-yl)methyl]-2-azaspiro[3.3]heptan-2-yl]methanone]  1.82 nM
10. O=C(N1CC2(CC(Cc3cc(C(F)(F)F)n[nH]3)C2)C1)N1CC2(CC(n3cnc(C4(O)CC4)n3)C2)C1 [Example 299, [6-[3-(1-hydroxycyclopropyl)-1,2,4-triazol-1-yl]-2-azaspiro[3.3]heptan-2-yl]-[6-[[3-(trifluoromethyl)-1H-pyrazol-5-yl]methyl]-2-azaspiro[3.3]heptan-2-yl]methanone]  1.83 nM
11. Cn1nc(C(F)(F)F)cc1CC1CC2(C1)CN(C(=O)N1CC3(CC(n4cnc(C5(O)CC5)n4)C3)C1)C2 [Example 288, [6-[3-(1-hydroxycyclopropyl)-1,2,4-triazol-1-yl]-2-azaspiro[3.3]heptan-2-yl]-[6-[[2-methyl-5-(trifluoromethyl)pyrazol-3-yl]methyl]-2-azaspiro[3.3]heptan-2-yl]methanone]  2.43 nM
12. Cn1cc(C(F)(F)F)c(CC2CC3(C2)CN(C(=O)N2CC4(CC(n5cnc(C6(O)CC6)n5)C4)C2)C3)n1 [Example 289, [6-[3-(1-hydroxycyclopropyl)-1,2,4-triazol-1-yl]-2-azaspiro[3.3]heptan-2-yl]-[6-[[1-methyl-4-(trifluoromethyl)pyrazol-3-yl]methyl]-2-azaspiro[3.3]heptan-2-yl]methanone]  2.9 nM
13. O=C(N1CC2(CC(Cn3ncc(C(F)(F)F)n3)C2)C1)N1CC2(CC(n3cnc(C4(O)CC4)n3)C2)C1 [Example 292, [6-[3-(1-hydroxycyclopropyl)-1,2,4-triazol-1-yl]-2-azaspiro[3.3]heptan-2-yl]-[6-[[4-(trifluoromethyl)triazol-2-yl]methyl]-2-azaspiro[3.3]heptan-2-yl]methanone]  4.31 nM
14. O=C(N1CC2(CC(Cn3ccc(C(F)(F)F)n3)C2)C1)N1CC2(CC(n3cnc(C4(O)CC4)n3)C2)C1 [Example 293, [6-[3-(1-hydroxycyclopropyl)-1,2,4-triazol-1-yl]-2-azaspiro[3.3]heptan-2-yl]-[6-[[3-(trifluoromethyl)pyrazol-1-yl]methyl]-2-azaspiro[3.3]heptan-2-yl]methanone]  5.1 nM
15. O=C(N1CC2(CC(Cc3n[nH]c(C4CC4)n3)C2)C1)N1CC2(CC(n3cnc(C(F)(F)F)n3)C2)C1 [Example 303, [6-[(5-cyclopropyl-1H-1,2,4-triazol-3-yl)methyl]-2-azaspiro[3.3]heptan-2-yl]-[6-[3-(trifluoromethyl)-1,2,4-triazol-1-yl]-2-azaspiro[3.3]heptan-2-yl]methanone]  9.41 nM
16. Cc1nc(C)c(CN2CC3(C2)CN(C(=O)N2CC4(CC(n5cnc(C6CC6)n5)C4)C2)C3)s1 [Example 302, [6-(3-cyclopropyl-1,2,4-triazol-1-yl)-2-azaspiro[3.3]heptan-2-yl]-[6-[(2,4-dimethylthiazol-5-yl)methyl]-2,6-diazaspiro[3.3]heptan-2-yl]methanone]  9.77 nM
17. O=C(N1CC2(CC(Cc3cnn(CC(F)(F)F)c3)C2)C1)N1CC2(CC(n3cnc(C4(O)CC4)n3)C2)C1 [Example 291, [6-[3-(1-hydroxycyclopropyl)-1,2,4-triazol-1-yl]-2-azaspiro[3.3]heptan-2-yl]-[6-[[1-(2,2,2-trifluoroethyl)pyrazol-4-yl]methyl]-2-azaspiro[3.3]heptan-2-yl]methanone]  10.8 nM
18. Cc1nc(C)c(CN2CC3(C2)CN(C(=O)N2CC4(CC(n5cnc(C6CC6)n5)C4)C2)C3)o1 [Example 307, [6-(3-cyclopropyl-1,2,4-triazol-1-yl)-2-azaspiro[3.3]heptan-2-yl]-[6-[(2,4-dimethyloxazol-5-yl)methyl]-2,6-diazaspiro[3.3]heptan-2-yl]methanone]  102 nM
19. Cn1ccnc1CN1CC2(C1)CN(C(=O)N1CC3(CC(n4cnc(C5CC5)n4)C3)C1)C2 [Example 308, [6-(3-cyclopropyl-1,2,4-triazol-1-yl)-2-azaspiro[3.3]heptan-2-yl]-[6-[(1-methylimidazol-2-yl)methyl]-2,6-diazaspiro[3.3]heptan-2-yl]methanone]  110 nM
20. Cc1c(CN2CC3(C2)CN(C(=O)N2CC4(CC(n5cnc(C6CC6)n5)C4)C2)C3)cnn1C [Example 309, [6-(3-cyclopropyl-1,2,4-triazol-1-yl)-2-azaspiro[3.3]heptan-2-yl]-[6-[(1,5-dimethylpyrazol-4-yl)methyl]-2,6-diazaspiro[3.3]heptan-2-yl]methanone]  183 nM
21. O=C(N1CC2(CC(n3cnc(C(F)(F)F)n3)C2)C1)N1CC2(CN(Cc3ccn(CCC(F)(F)F)n3)C2)C1 [Example 312, [6-[3-(trifluoromethyl)-1,2,4-triazol-1-yl]-2-azaspiro[3.3]heptan-2-yl]-[6-[[1-(3,3,3-trifluoropropyl)pyrazol-3-yl]methyl]-2,6-diazaspiro[3.3]heptan-2-yl]methanone]  183 nM
22. O=C(N1CC2(CC(n3cnc(C(F)F)n3)C2)C1)N1CC2(CN(Cc3cc(C(F)(F)F)n[nH]3)C2)C1 [Example 311, [6-[3-(difluoromethyl)-1,2,4-triazol-1-yl]-2-azaspiro[3.3]heptan-2-yl]-[6-[[3-(trifluoromethyl)-1H-pyrazol-5-yl]methyl]-2,6-diazaspiro[3.3]heptan-2-yl]methanone]  190 nM
23. O=C(N1CC2(CC(n3cnc(C(F)F)n3)C2)C1)N1CC2(CN(Cc3cn[nH]c3C(F)(F)F)C2)C1 [Example 310, [6-[3-(difluoromethyl)-1,2,4-triazol-1-yl]-2-azaspiro[3.3]heptan-2-yl]-[6-[[5-(trifluoromethyl)-1H-pyrazol-4-yl]methyl]-2,6-diazaspiro[3.3]heptan-2-yl]methanone]  344 nM
24. CCc1nc(C)c(CN2CC3(C2)CN(C(=O)N2CC4(CC(n5cnc(C6CC6)n5)C4)C2)C3)[nH]1 [Example 306, [6-(3-cyclopropyl-1,2,4-triazol-1-yl)-2-azaspiro[3.3]heptan-2-yl]-[6-[(2-ethyl-4-methyl-1H-imidazol-5-yl)methyl]-2,6-diazaspiro[3.3]heptan-2-yl]methanone]  907 nM
25. Cn1cnc(CN2CC3(C2)CN(C(=O)N2CC4(CC(n5cnc(C6CC6)n5)C4)C2)C3)c1 [Example 305, [6-(3-cyclopropyl-1,2,4-triazol-1-yl)-2-azaspiro[3.3]heptan-2-yl]-[6-[(1-methylimidazol-4-yl)methyl]-2,6-diazaspiro[3.3]heptan-2-yl]methanone]  2860 nM
